Measured values reported in PubChem BioAssay AID687005 (Broad Institute, 2013).
Records with an inconclusive call do not appear. The source made the active and inactive calls.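 How the source made its calls: active means Compounds that reduce signal, with fitted half-maximal dose at or under twice the top valid tested dose; inconclusive means Poor fit, or flat curve losing 30 to 70% of signal; inactive means Potency past limit, flat within 30%, or opposite direction.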

Assay: viability loss in HEK293T cells – cell-based, ATP luminescence, cherry-pick samples, cytotoxicity control, dose response (AID 687005)
Settings: HEK293T viability, ATP luminescence (CellTiter-Glo), 48 h; at 23.5 µM (top of the series)

Row | Compound | activity change, negative = cytotoxicity
1 | Cc1ccc(S(=O)(=O)Nc2ccc3c(c2)C(=O)N([C@@H](C)CO)C[C@H](C)[C@H](CN(C)C(=O)Nc2ccc(C(F)(F)F)cc2)O3)cc1 | -1.43% (inactive)
2 | Cc1noc(C)c1NC(=O)N(C)C[C@H]1Oc2ccc(NS(=O)(=O)c3cn(C)cn3)cc2CC(=O)N([C@H](C)CO)C[C@H]1C | -32.1% (inactive)
3 | C[C@@H]1CN([C@@H](C)CO)C(=O)CCCn2cc(nn2)CO[C@@H]1CN(C)Cc1ccc2c(c1)OCO2 | -1.87% (inactive)
4 | C[C@@H]1CN([C@@H](C)CO)C(=O)c2cc(NC(=O)Nc3ccc(F)cc3)ccc2O[C@@H](C)CCCCO[C@H]1CN(C)S(=O)(=O)c1ccccc1 | 3.48% (inactive)
5 | COc1ccc(CN(C)C[C@@H]2Oc3ccc(NS(C)(=O)=O)cc3CC(=O)N([C@H](C)CO)C[C@H]2C)cc1 | 1.11% (inactive)
6 | COc1ccc(CN(C)C[C@H]2OCCCC[C@@H](C)Oc3ccc(NC(=O)c4ccccc4)cc3C(=O)N([C@H](C)CO)C[C@@H]2C)cc1 | -10.4% (inactive)
7 | COc1cccc(S(=O)(=O)Nc2ccc3c(c2)[C@H]2C[C@H](CC(=O)NCc4cccc(F)c4)O[C@@H](CO)[C@H]2O3)c1 | -22.3% (inactive)
8 | C[C@@H]1CN([C@H](C)CO)C(=O)c2cc(NC(=O)CCC(F)(F)F)ccc2O[C@@H](C)CCCCO[C@@H]1CN(C)C(=O)c1ccncc1 | -15.4% (inactive)
9 | C[C@@H]1CCCCO[C@@H](CN(C)Cc2ccc3c(c2)OCO3)[C@@H](C)CN([C@H](C)CO)C(=O)c2cc(NS(=O)(=O)c3ccc(F)cc3)ccc2O1 | -35.2% (inactive)

Same assay, conditions: HEK293T viability, ATP luminescence (CellTiter-Glo), 48 h; at 26 µM (top of the series)

Row | Compound | activity change, negative = cytotoxicity
10 | Cc1cc(C)c(NC(=O)C2CCCN2CCO)c(C)c1 (configuration not stated) | -10.1% (inactive)
11 | CCC(=O)Nc1ccc2c(c1)C(=O)N(C)C[C@@H](OC)[C@H](C)CN[C@@H](C)CO2 | 4.18% (inactive)
12 | O=C(C[C@H]1CC[C@H]2[C@@H](COC[C@@H](O)CN2S(=O)(=O)c2ccc(Oc3ccccc3)cc2)O1)NC1CCC1 | 16.3% (inactive)
13 | C[C@@H]1CN([C@@H](C)CO)C(=O)Cc2cc(NC(=O)Nc3cccc4ccccc34)ccc2O[C@@H]1CN(C)S(=O)(=O)c1cccs1 | 153% (inactive)
14 | Cc1ccccc1S(=O)(=O)N[C@H]1CC[C@H](CCNS(=O)(=O)c2cccc(F)c2)O[C@H]1CO | -6.73% (inactive)
15 | CC(C)NC(=O)N[C@H]1CC[C@@H](CCNC(=O)C2CC2)O[C@H]1CO | 6.21% (inactive)
16 | COc1ccc(NC(=O)Nc2ccc3c(c2)C(=O)N([C@H](C)CO)C[C@@H](C)[C@@H](CN(C)C(=O)CCC(F)(F)F)OCCCC[C@H](C)O3)cc1 | -34.4% (inactive)
17 | COCC#Cc1cnc2c(c1)C(=O)N([C@@H](C)CO)C[C@H](C)[C@H](CN(C)C(=O)Nc1ccc(OC)cc1)O2 | 21.8% (inactive)
18 | CC(=O)N1[C@H](CO)[C@H](c2ccc(-c3ccccc3)cc2)[C@H]1CNC(=O)C1CC1 | -33.3% (inactive)
19 | COc1cccc(-c2cn(CC[C@@H]3CC[C@@H](NC(C)=O)[C@H](CO)O3)nn2)c1 | 53.3% (inactive)
20 | CC(C)NC(=O)N[C@H]1CC[C@@H](CCNC(=O)C2CC2)O[C@@H]1CO | -21.3% (inactive)
21 | C[C@H]1CN([C@@H](C)CO)C(=O)c2cccc(NS(C)(=O)=O)c2O[C@H]1CN(C)C(=O)Nc1ccc2c(c1)OCO2 | 20.3% (inactive)
22 | CN1C(=O)c2cc(NS(=O)(=O)c3cccc(F)c3)ccc2OC[C@H]2O[C@H](CC(=O)O)CC[C@H]21 | 29.9% (inactive)
23 | Cc1ccc(C)c(NC(=O)C2CCCN2C(=O)NC2CCCCC2)c1 (configuration not stated) | 25.9% (inactive)
24 | COc1cccc(S(=O)(=O)Nc2ccc3c(c2)OC[C@@H](C)NC[C@H](C)[C@@H](OC)CN(C)C3=O)c1 | -6.17% (inactive)
25 | O=C(Nc1ccc(F)cc1)N1C[C@@H]2[C@H](c3ccccc31)[C@H](CO)N2Cc1cocn1 | -11.6% (inactive)
26 | CCCNC(=O)C[C@H]1CC[C@H]2[C@@H](COC[C@@H](O)CN2S(=O)(=O)c2ccc(Oc3ccccc3)cc2)O1 | -8.05% (inactive)
27 | C[C@@H]1CN([C@@H](C)CO)C(=O)c2cc(NC(=O)CCN3CCOCC3)ccc2O[C@@H]1CN(C)Cc1ccc(C(=O)O)cc1 | -11.9% (inactive)

Row | Compound | activity change, negative = cytotoxicity
28 | O=C(NC(=S)Nc1ccc(CN2CCOCC2)cc1)c1ccc([N+](=O)[O-])cc1 | -19.4% (inactive)
29 | CCCNC(=O)N(C)C[C@@H]1Oc2ncc(C#CCc3ccccc3)cc2C(=O)N([C@@H](C)CO)C[C@@H]1C | 12% (inactive)
30 | N#Cc1ccc(C23CC4(C2)[C@H](CN(Cc2ccc(-c5ccccc5)cc2)[C@@H]4c2ccccc2)C3c2ccc(C(F)(F)F)cc2)cc1 (some centres not stated) | -11.2% (inactive)
31 | Cc1ccc(S(=O)(=O)N2C[C@@H](O)COC[C@@H]3O[C@H](CC(=O)NCc4ccc5c(c4)OCO5)CC[C@H]32)cc1 | 46.9% (inactive)
32 | O=C(C[C@H]1C=C[C@H](NC(=O)C2CCC2)[C@@H](CO)O1)NC1CCC1 | -2.82% (inactive)
33 | COc1ccc(-c2cnc3c(c2)C(=O)N([C@@H](C)CO)C[C@H](C)[C@@H](CN(C)S(C)(=O)=O)O3)cc1 | -11.2% (inactive)
34 | CCCNC(=O)C[C@@H]1CC[C@@H]2[C@H](COc3ccc(NC(=O)CCC)cc3C(=O)N2C)O1 | 52.7% (inactive)
35 | CC(=O)c1cccc(NC(=S)NC2CCCCC2)c1 | -7.11% (inactive)
36 | C[C@H](CO)N1C[C@H](C)[C@@H](CN(C)CC2CCOCC2)Oc2ncc(C#Cc3ccc(F)cc3)cc2C1=O | -11.1% (inactive)
37 | CC(C)CC#Cc1cnc2c(c1)C(=O)N([C@H](C)CO)C[C@H](C)[C@H](CN(C)C(=O)c1cccnc1)O2 | -8.15% (inactive)
38 | COCCNC(=O)C[C@H]1C=C[C@H](NS(=O)(=O)c2ccc(C)cc2)[C@@H](CO)O1 | -8.29% (inactive)
39 | Fc1ccccc1NC(=S)NCCc1cccc(Cl)c1 | 1.09% (inactive)
40 | CC(C)NC(=O)N(C)C[C@H]1Oc2c(NS(=O)(=O)c3ccc(Cl)cc3)cccc2C(=O)N([C@@H](C)CO)C[C@@H]1C | -20.3% (inactive)
41 | COc1cccc(NC(=S)N2CCC(Cc3ccccc3)CC2)c1 | 15.7% (inactive)
42 | Cc1cc(C(=O)NC(=S)Nc2ccccc2N2CCCC2)ccc1[N+](=O)[O-] | -6.6% (inactive)
43 | Cc1noc(C)c1NC(=O)N(C)C[C@H]1Oc2ccc(NC(=O)C3CC3)cc2CC(=O)N([C@@H](C)CO)C[C@H]1C | 0.766% (inactive)
44 | CCC(=O)N[C@@H]1C=C[C@H](CC(=O)NCC2CCCCC2)O[C@H]1CO | -35.2% (inactive)

Same assay, conditions: HEK293T viability, ATP luminescence (CellTiter-Glo), 48 h; at 30 µM (top of the series)

Row | Compound | activity change, negative = cytotoxicity
45 | NC(=O)CN(c1ccccc1)S(=O)(=O)c1ccc(F)cc1 | -2.68% (inactive)

Same assay, conditions: HEK293T viability, ATP luminescence (CellTiter-Glo), 48 h; at 42 µM (top of the series)

Row | Compound | activity change, negative = cytotoxicity
46 | CCC(=O)N1CCCC1(C)C(=O)Nc1ccc(C)c(C)c1 (configuration not stated) | -1.9% (inactive)
47 | CCc1ccc(NC(=O)C2NC(=O)CC2c2ccccc2)cc1 (configuration not stated) | -46.7% (inactive)
